Measured values taken from US9920075B2, “Triazolopyridine and triazolopyrimidine inhibitors of myeloperoxidase” (BRISTOL-MYERS SQUIBB COMPANY, priority 2014, dated 2018).
Where “and” joins values, the source holds several entries; their conditions need not be identical. Identical values can stand only once.

Columns and labels:
myeloperoxidase (MPO) [1] = target: T1, myeloperoxidase (MPO) (Homo sapiens, UniProt P05164); experiment: MPO peroxidation assay (Amplex Red assay); format: biochemical
T1 sequence (P05164 49-745): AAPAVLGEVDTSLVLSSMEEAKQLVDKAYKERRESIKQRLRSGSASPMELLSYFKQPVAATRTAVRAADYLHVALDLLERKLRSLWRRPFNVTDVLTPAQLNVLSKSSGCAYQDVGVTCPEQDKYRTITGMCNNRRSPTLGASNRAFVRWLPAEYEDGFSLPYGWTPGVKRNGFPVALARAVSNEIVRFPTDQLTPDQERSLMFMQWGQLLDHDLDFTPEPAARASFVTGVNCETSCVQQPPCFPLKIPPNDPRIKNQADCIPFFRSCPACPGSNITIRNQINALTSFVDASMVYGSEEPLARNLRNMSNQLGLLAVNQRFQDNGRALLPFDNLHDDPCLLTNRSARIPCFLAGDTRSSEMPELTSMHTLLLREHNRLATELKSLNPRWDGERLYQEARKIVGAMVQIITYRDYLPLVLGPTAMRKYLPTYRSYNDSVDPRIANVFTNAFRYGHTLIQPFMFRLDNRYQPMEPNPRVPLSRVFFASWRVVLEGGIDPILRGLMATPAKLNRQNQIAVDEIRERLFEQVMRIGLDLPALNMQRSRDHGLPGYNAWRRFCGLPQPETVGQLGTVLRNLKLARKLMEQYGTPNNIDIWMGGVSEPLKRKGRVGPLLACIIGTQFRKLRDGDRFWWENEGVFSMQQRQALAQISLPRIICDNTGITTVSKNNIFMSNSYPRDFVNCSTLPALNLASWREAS
Experimental: MPO Peroxidation Assay (Amplex Red Assay)
MPO peroxidation activity was measured in 100 mM KPi (pH 7.4) by utilizing the non-fluorescent reagent Amplex Red (Invitrogen Cat. #A12222) which can be oxidized to the highly fluorescent resorufin. Amplex Red is oxidized by the peroxidase action of MPO to resorufin. […] Enzyme and compound were preincubated for ten minutes at room temperature.
After the ten minute preincubation, 25 μL of an Amplex Red mixture containing 200 μM Amplex Red and 10 mM H2O2 was added to the plate.
(§1) IC50 values were calculated by determining the slope of the linear portion of the kinetic trace (180-540 secs), and using that calculated slope to determine % inhibition occurring at each concentration of inhibitor using the following equation:
(§2) [formula] where A=minimal Y value (activity level of inhibited sample), B=maximal Y value (activity level of uninhibited sample), C=Log IC50, D=Hill Slope, x=concentration of inhibitor. MPO Chlorination Assay (APF Assay)

myeloperoxidase (MPO) [2] = target: T1, myeloperoxidase (MPO); experiment: MPO chlorination assay (APF assay); format: biochemical; details: MPO chlorination, 100 mM KPi pH 7.4, ten minute preincubation; read-out: APF Assay IC50 value
Experimental: as §2
MPO chlorination activity was measured in 100 mM KPi (pH 7.4) by utilizing the non-fluorescent reagent Aminophenyl fluorescein (APF, Invitrogen Cat. #A36003). APF is cleaved by (—OCl) to yield the fluorescent compound fluorescein. […] Enzyme, inhibitor, and chloride were preincubated for ten minutes at room temperature.
After the ten minute preincubation, 25 μL of an APF mixture containing […], 120 mM NaCl and 10 μM H2O2 was added to the plate using the internal dispensing system of a Hammatsu FDSS 6000. […] IC50 values for inhibitors were calculated by taking the slope of the linear portion of the kinetic measurement (20 seconds to ˜80-120 secs).
as §1
[formula] where A=minimal Y value (activity level of inhibited sample), B=maximal Y value (activity level of uninhibited sample), C=Log IC50, D=Hill Slope, x=concentration of inhibitor. EPX Bromination Assay

[3] = MPO peroxidation, 100 mM KPi pH 7.4, ten minute preincubation, read-out: Amplex Red Assay IC50 value
[4] = MPO peroxidation (Amplex Red), ranges given, read-out: MPO peroxidation assay IC50 values (binned)

| Compound | IC50 (myeloperoxidase (MPO) [1]; [3]) [nM] | IC50 (myeloperoxidase (MPO) [2]) [nM] | IC50 (myeloperoxidase (MPO) [1]; [4]) |
| --- | --- | --- | --- |
| Nc1cc(OCC2CCN(C3=NC=CCN3)CC2)c2nn[nH]c2n1 [Example 85, 7-((1-(1,6-Dihydropyrimidin-2-yl)piperidin-4-yl)methoxy)-3H-[1,2,3]triazolo[4,5-b]pyridin-5-amine] | 1080 | 640 |  |
| Nc1cc(OCc2nn(Cc3ccccc3)c3ccccc23)c2nn[nH]c2n1 [Example 53, 7-((1-Benzyl-1H-indazol-3-yl)methoxy)-3H-[1,2,3]triazolo[4,5-b]pyridin-5-amine] | 80 | 100 |  |
| CCc1nn(-c2ccccc2)nc1COc1cc(N)nc2[nH]nnc12 [Example 57, 7-((5-Ethyl-2-phenyl-2H-1,2,3-triazol-4-yl)methoxy)-3H-[1,2,3]triazolo [4,5-b]pyridin-5-amine] | 80 | 320 |  |
| COc1cc(-c2nc(COc3cc(N)nc4[nH]nnc34)c(C)o2)ccc1Cl [Example 43, 7-((2-(4-Chloro-3-methoxyphenyl)-5-methyloxazol-4-yl)methoxy)-3H-[1,2,3]triazolo[4,5-b]pyridin-5-amine] | 760 | 1520 |  |
| Cn1nc(-c2ccccc2)cc1COc1cc(N)nc2[nH]nnc12 [Example 18, 7-((1-Methyl-3-phenyl-1H-pyrazol-5-yl)methoxy)-3H-[1,2,3]triazolo[4,5-b]pyridin-5-amine] |  |  | ≤ 60 nM |
| COCc1nn(-c2ccccc2)nc1COc1cc(N)nc2[nH]nnc12 [Example 56, 7-((5-(Methoxymethyl)-2-phenyl-2H-1,2,3-triazol-4-yl)methoxy)-3H-[1,2,3]triazolo[4,5-b]pyridin-5-amine] |  |  | 60 to 150 nM |
| Cc1nn(-c2ccc(F)cc2)nc1COc1cc(N)nc2[nH]nnc12 [Example 10, 7-((2-(4-Fluorophenyl)-5-methyl-2H-1,2,3-triazol-4-yl)methoxy)-3H-[1,2,3]triazolo[4,5-b]pyridin-5-amine] |  |  | ≤ 60 nM |
| Nc1cc(OCc2cccc3c2nnn3Cc2ccccc2)c2nn[nH]c2n1 [Example 38, 7-((1-Benzyl-1H-benzo[d][1,2,3]triazol-4-yl)methoxy)-3H-[1,2,3]triazolo [4,5-b]pyridin-5-amine] |  |  | 60 to 150 nM and 150 to 1000 nM |
| Nc1nc(OCc2ccc3ncccc3c2)c2nn[nH]c2n1 [Example 115, 7-(quinolin-6-ylmethoxy)-3H-[1,2,3] triazolo[4,5-d]pyrimidin-5-amine] |  |  | 60 to 150 nM |
| Nc1cc(OCc2cccc(C(F)(F)F)n2)c2nn[nH]c2n1 [Example 16, 7-((6-(Trifluoromethyl)pyridin-2-yl)methoxy)-3H-[1,2,3]triazolo[4,5-b]pyridin-5-amine] |  |  | ≤ 60 nM |

Now from value to molecule:

| IC50 (myeloperoxidase (MPO) [1]; [3]) [nM] | IC50 (myeloperoxidase (MPO) [2]) [nM] | IC50 (myeloperoxidase (MPO) [1]; [4]) | Compound |
| --- | --- | --- | --- |
| 20 | 80 |  | Cc1nn(-c2cccc(F)c2)nc1COc1cc(N)nc2[nH]nnc12 [Example 12, 7-((2-(3-Fluorophenyl)-5-methyl-2H-1,2,3-triazol-4-yl)methoxy)-3H-[1,2,3]triazolo[4,5-b]pyridin-5-amine] |
| 610 | 320 |  | Nc1cc(OCC2COc3ccccc3O2)c2nn[nH]c2n1 (stereo not drawn) [Example 32, 7-((2,3-Dihydrobenzo[b][1,4]dioxin-2-yl)methoxy)-3H-[1,2,3]triazolo[4,5-b]pyridin-5-amine] |
|  |  | 60 to 150 nM | Nc1cc(OCc2cc(-c3ccc(CO)nc3)ncc2F)c2nn[nH]c2n1 [Example 111, (4-(((5-amino-3H-[1,2,3]triazolo[4,5-b]pyridin-7-yl)oxy)methyl)-5-fluoro-[2,3′-bipyridin]-6′-yl)methanol] |
|  |  | 60 to 150 nM | Nc1cc(OCc2ncc(-c3ccc(CO)nc3)cc2F)c2nn[nH]c2n1 [Example 108, (6′-(((5-amino-3H-[1,2,3]triazolo[4,5-b]pyridin-7-yl)oxy)methyl)-5′-fluoro-[3,3′-bipyridin]-6-yl)methanol] |
|  |  | ≤ 60 nM | CCn1nc(C(F)(F)F)cc1COc1cc(N)nc2[nH]nnc12 [Example 19, 7-((1-Ethyl-3-(trifluoromethyl)-1H-pyrazol-5-yl)methoxy)-3H-[1,2,3]triazolo[4,5-b]pyridin-5-amine] |
